Data on eleven molecules can be found in BindingDB's records for patent US11433071 (Incyte Corporation; Incyte Holdings Corporation, 2022).

pIC50: −log10 of the molar value.

The first assay deals with T1, Phosphatidylinositol 4,5-bisphosphate 3-kinase catalytic subunit delta isoform (Homo sapiens, UniProt O00329).
T1 sequence (O00329 whole entry): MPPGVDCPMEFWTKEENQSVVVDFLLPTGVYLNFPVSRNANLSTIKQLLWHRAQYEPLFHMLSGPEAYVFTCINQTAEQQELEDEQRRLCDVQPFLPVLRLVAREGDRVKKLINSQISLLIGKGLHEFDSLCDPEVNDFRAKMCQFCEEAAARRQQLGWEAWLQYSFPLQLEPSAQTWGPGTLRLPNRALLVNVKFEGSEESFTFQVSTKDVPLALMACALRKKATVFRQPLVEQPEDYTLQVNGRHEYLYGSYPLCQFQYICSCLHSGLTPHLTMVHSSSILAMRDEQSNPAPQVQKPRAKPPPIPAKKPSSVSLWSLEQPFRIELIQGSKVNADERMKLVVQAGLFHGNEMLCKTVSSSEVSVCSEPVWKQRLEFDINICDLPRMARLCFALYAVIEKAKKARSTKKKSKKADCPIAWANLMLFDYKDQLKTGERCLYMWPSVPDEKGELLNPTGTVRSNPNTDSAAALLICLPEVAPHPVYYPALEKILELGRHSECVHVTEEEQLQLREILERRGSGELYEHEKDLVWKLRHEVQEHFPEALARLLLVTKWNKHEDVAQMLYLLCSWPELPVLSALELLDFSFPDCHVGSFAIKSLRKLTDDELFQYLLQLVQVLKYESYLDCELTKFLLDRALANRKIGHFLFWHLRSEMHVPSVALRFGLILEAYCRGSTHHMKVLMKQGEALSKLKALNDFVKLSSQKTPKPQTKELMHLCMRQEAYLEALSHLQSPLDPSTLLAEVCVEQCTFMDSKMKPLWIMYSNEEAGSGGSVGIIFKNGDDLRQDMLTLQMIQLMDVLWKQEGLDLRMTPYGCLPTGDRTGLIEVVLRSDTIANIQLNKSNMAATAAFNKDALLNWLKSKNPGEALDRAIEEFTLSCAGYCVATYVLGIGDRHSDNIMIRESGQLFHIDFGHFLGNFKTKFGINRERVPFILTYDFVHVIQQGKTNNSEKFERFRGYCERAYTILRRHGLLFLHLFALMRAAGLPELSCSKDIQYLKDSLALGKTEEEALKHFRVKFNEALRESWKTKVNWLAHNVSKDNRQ
Description: PI3K Enzyme Assay. How it is done:
Materials: Lipid kinase substrate, phosphoinositol-4,5-bisphosphate (PIP2), are purchased from Echelon Biosciences (Salt Lake City, Utah). PI3K isoforms α, β, δ and γ are purchased from Millipore (Bedford, Mass.). ATP, MgCl2, DTT, EDTA, MOPS and CHAPS are purchased from Sigma-Aldrich (St. Louis, Mo.).The kinase reaction are conducted in clear-bottom 96-well plate from Thermo Fisher Scientific in a final volume of 24 μL. Inhibitors are first diluted serially in DMSO and added to the plate wells before the addition of other reaction components. The final concentration of DMSO in the assay is 0.5%. The PI3K assays are carried out at room temperature in 20 mM MOPS, pH 6.7, 10 mM MgCl2, 5 mM DTT and CHAPS 0.03%. The reaction mixture is prepared containing 50 μM PIP2, kinase and varying concentration of inhibitors. Reactions are initiated by the addition of ATP containing 2.2 μCi [γ-33P]ATP to a final concentration of 1000 μM. The final concentration of PI3K isoforms α, β, δ and γ in the assay were 1.3, 9.4, 2.9 and 10.8 nM, respectively. Reactions are incubated for 180 minutes and terminated by the addition of 100 μL of 1 M potassium phosphate pH 8.0, 30 mM EDTA quench buffer. […] After the plate sealing, the radioactivity of the product is determined by scintillation counting on Topcount (Perkin-Elmer). […]
A word on the pIC50: it is the IC50 on a negative log10 scale, so that one unit is a factor of ten. A lower pIC50 goes with a high IC50. As to `COc1c([C@@H](C)n2cc(C)c(=O)c3c(N)ncnc32)cc(Cl)c(C)c1-c1ccc(C[C@H](C)O)nc1` [US11433071, Example 361], the pIC50 was < 6.30.

A further assay deals with T1, Phosphatidylinositol 4,5-bisphosphate 3-kinase catalytic subunit delta isoform. Description: PI3Kδ Scintillation Proximity Assay. How it is done: The kinase reaction was conducted in polystyrene 384-well matrix white plate from Thermo Fisher Scientific in a final volume of 25 μL. Inhibitors were first diluted serially in DMSO and added to the plate wells before the addition of other reaction components. The final concentration of DMSO in the assay was 0.5%. The PI3K assays were carried out at room temperature in 20 mM MOPS, pH 6.7, 10 mM MgCl2, 5 mM DTT and CHAPS 0.03%. Reactions were initiated by the addition of ATP, the final reaction mixture consisted of 20 μM PIP2, 20 μM ATP, 0.2 μCi [γ-33P] ATP, 4 nM PI3Kδ. […] 25 mM EDTA, 400 µM ATP. The final concentration of SPA beads was 1.0 mg/mL. After the plate sealing, plates were shaken overnight at room temperature and centrifuged at 1800 rpm for 10 minutes, the radioactivity of the product was determined by scintillation counting on Topcount (Perkin-Elmer).
(In general: In a scintillation proximity assay essentially only radioactivity close to the scintillant gives light.)
Regarding `CCOc1c(C(C)n2nc(C)c3c(N)ncnc32)cc(Cl)c(C#N)c1C1CN(c2ccnc(C(=O)N(C)C)c2)C1` (stereo unspecified) [US11433071, Example 334], the pIC50 is > 8.00.

For the molecule `CCOc1c(C(C)n2nc(C)c3c(N)ncnc32)cc(C)c(C#N)c1C1CN(c2cnn(C)c2)C1` (stereo unspecified) [US11433071, Example 343], the pIC50 is > 8.00. For the molecule `CCOc1c(C(C)n2nc(C)c3c(N)ncnc32)cc(Cl)c(C#N)c1C1CN(N2CC(C#N)C2)C1` (stereo unspecified) [US11433071, Example 342], the pIC50 was > 8.00.

On to `COc1c([C@H](C)n2cc(C)c(=O)c3c(N)ncnc32)cc(Cl)c(C)c1-c1ccc(C[C@@H](C)O)nc1` [US11433071, Example 362], for which the pIC50 is > 8.00.

On to `CCOc1c(C(C)n2nc(C)c3c(N)ncnc32)cc(Cl)c(C#N)c1C1CN(c2ccc(-c3nnn(C)n3)nc2)C1` (stereo unspecified) [US11433071, Example 336], for which the negative-log IC50 (pIC50) was > 8.00.

Consider `CCOc1c(C(C)n2nc(C)c3c(N)ncnc32)cc(Cl)c(C#N)c1C1CN(N2CC(COC)C2)C1` (stereo unspecified) [US11433071, Example 341], for which the pIC50 was > 8.00. The same measure, in the same setting: in the case of `CCOc1c(C(C)n2nc(C)c3c(N)ncnc32)cc(C)c(C#N)c1C1CN(c2cncc(S(C)(=O)=O)c2)C1` (stereo unspecified) [US11433071, Example 335] it was > 8.00. The same measure, in the same setting: in the case of `CCOc1c(C(C)n2nc(C)c3c(N)ncnc32)cc(Cl)c(C#N)c1C1CN(c2ccc(-c3cnn(C)n3)nc2)C1` (stereo unspecified) [US11433071, Example 337] it was > 8.00; in that of `CCOc1c(C(C)n2nc(C)c3c(N)ncnc32)cc(Cl)c(C#N)c1C1CN(c2cncc(C#N)c2)C1` (stereo unspecified) [US11433071, Example 330], > 8.00. Same read-out and setting: as for `CCOc1c(C(C)n2nc(C)c3c(N)ncnc32)cc(Cl)c(C#N)c1C1CN(c2cncc(C(=O)N(C)C)c2)C1` (stereo unspecified) [US11433071, Example 331], the figure is > 8.00.
